In EP0726263A2, “Herbicidal (1,3,4)oxadiazoles and thiadiazoles” (American Cyanamid Company, priority 1995, dated 1996):

Key:
Type in all cases: in vivo
Zea mays [1] = test: Herbicidal activity, postemergence test; conditions: post; sprayed onto seedling plants, 800 g of active material per hectare; evaluated 2 weeks after treatment
Outline: (§1)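 Spray dose 800 g a.i./ha in 900 L/ha; acetone stock with 0.4% Triton X-155, water-diluted. Pre: sown loam soil, read at 3 wk. Post: seedling plants, read at 2 wk. Visual 0-9 rating vs untreated.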

Abutilon theophrasti [2] = test: Herbicidal activity, postemergence test; conditions: post; sprayed onto seedling plants, 800 g of active material per hectare; evaluated 2 weeks after treatment
Outline: as §1

Amaranthus retroflexus [3] = test: Herbicidal activity, postemergence test; conditions: post; sprayed onto seedling plants, 800 g of active material per hectare; evaluated 2 weeks after treatment
Outline: as §1

Gossypium hirsutum [4] = test: Herbicidal activity, postemergence test; conditions: post; sprayed onto seedling plants, 800 g of active material per hectare; evaluated 2 weeks after treatment
Outline: as §1

Stellaria media [5] = test: Herbicidal activity, postemergence test; conditions: post; sprayed onto seedling plants, 800 g of active material per hectare; evaluated 2 weeks after treatment
Outline: as §1

Alopecurus myosuroides [6] = test: Herbicidal activity, postemergence test; conditions: post; sprayed onto seedling plants, 800 g of active material per hectare; evaluated 2 weeks after treatment
Outline: as §1

Galium aparine [7] = test: Herbicidal activity, postemergence test; conditions: post; sprayed onto seedling plants, 800 g of active material per hectare; evaluated 2 weeks after treatment
Outline: as §1

Ipomoea hederacea [8] = test: Herbicidal activity, postemergence test; conditions: post; sprayed onto seedling plants, 800 g of active material per hectare; evaluated 2 weeks after treatment
Outline: as §1

Setaria viridis [9] = test: Herbicidal activity, postemergence test; conditions: post; sprayed onto seedling plants, 800 g of active material per hectare; evaluated 2 weeks after treatment
Outline: as §1

Ambrosia artemisifolia [10] = test: Herbicidal activity, postemergence test; conditions: post; sprayed onto seedling plants, 800 g of active material per hectare; evaluated 2 weeks after treatment
Outline: as §1

Glycine max [11] = test: Herbicidal activity, postemergence test; conditions: post; sprayed onto seedling plants, 800 g of active material per hectare; evaluated 2 weeks after treatment
Outline: as §1

Hordeum vulgare [12] = test: Herbicidal activity, postemergence test; conditions: post; sprayed onto seedling plants, 800 g of active material per hectare; evaluated 2 weeks after treatment
Outline: as §1

Triticum aestivum [13] = test: Herbicidal activity, postemergence test; conditions: post; sprayed onto seedling plants, 800 g of active material per hectare; evaluated 2 weeks after treatment
Outline: as §1

Veronica persica [14] = test: Herbicidal activity, postemergence test; conditions: post; sprayed onto seedling plants, 800 g of active material per hectare; evaluated 2 weeks after treatment
Outline: as §1

Matricaria inodora [15] = test: Herbicidal activity, postemergence test; conditions: post; sprayed onto seedling plants, 800 g of active material per hectare; evaluated 2 weeks after treatment
Outline: as §1

Papaver rhoeas [16] = test: Herbicidal activity, postemergence test; conditions: post; sprayed onto seedling plants, 800 g of active material per hectare; evaluated 2 weeks after treatment
Outline: as §1

Lamium purpureum [17] = test: Herbicidal activity, postemergence test; conditions: post; sprayed onto seedling plants, 800 g of active material per hectare; evaluated 2 weeks after treatment
Outline: as §1

Chenopodium album [18] = test: Herbicidal activity, postemergence test; conditions: post; sprayed onto seedling plants, 800 g of active material per hectare; evaluated 2 weeks after treatment
Outline: as §1

Zea mays [19] = test: Herbicidal activity, preemergence test; conditions: pre; sprayed onto soil, 800 g of active material per hectare; evaluated 3 weeks after treatment
Outline: as §1

Abutilon theophrasti [20] = test: Herbicidal activity, preemergence test; conditions: pre; sprayed onto soil, 800 g of active material per hectare; evaluated 3 weeks after treatment
Outline: as §1

Amaranthus retroflexus [21] = test: Herbicidal activity, preemergence test; conditions: pre; sprayed onto soil, 800 g of active material per hectare; evaluated 3 weeks after treatment
Outline: as §1

Gossypium hirsutum [22] = test: Herbicidal activity, preemergence test; conditions: pre; sprayed onto soil, 800 g of active material per hectare; evaluated 3 weeks after treatment
Outline: as §1

Stellaria media [23] = test: Herbicidal activity, preemergence test; conditions: pre; sprayed onto soil, 800 g of active material per hectare; evaluated 3 weeks after treatment
Outline: as §1

Alopecurus myosuroides [24] = test: Herbicidal activity, preemergence test; conditions: pre; sprayed onto soil, 800 g of active material per hectare; evaluated 3 weeks after treatment
Outline: as §1

Galium aparine [25] = test: Herbicidal activity, preemergence test; conditions: pre; sprayed onto soil, 800 g of active material per hectare; evaluated 3 weeks after treatment
Outline: as §1

Ipomoea hederacea [26] = test: Herbicidal activity, preemergence test; conditions: pre; sprayed onto soil, 800 g of active material per hectare; evaluated 3 weeks after treatment
Outline: as §1

Setaria viridis [27] = test: Herbicidal activity, preemergence test; conditions: pre; sprayed onto soil, 800 g of active material per hectare; evaluated 3 weeks after treatment
Outline: as §1

Ambrosia artemisifolia [28] = test: Herbicidal activity, preemergence test; conditions: pre; sprayed onto soil, 800 g of active material per hectare; evaluated 3 weeks after treatment
Outline: as §1

Glycine max [29] = test: Herbicidal activity, preemergence test; conditions: pre; sprayed onto soil, 800 g of active material per hectare; evaluated 3 weeks after treatment
Outline: as §1

Hordeum vulgare [30] = test: Herbicidal activity, preemergence test; conditions: pre; sprayed onto soil, 800 g of active material per hectare; evaluated 3 weeks after treatment
Outline: as §1

Triticum aestivum [31] = test: Herbicidal activity, preemergence test; conditions: pre; sprayed onto soil, 800 g of active material per hectare; evaluated 3 weeks after treatment
Outline: as §1

Veronica persica [32] = test: Herbicidal activity, preemergence test; conditions: pre; sprayed onto soil, 800 g of active material per hectare; evaluated 3 weeks after treatment
Outline: as §1

Matricaria inodora [33] = test: Herbicidal activity, preemergence test; conditions: pre; sprayed onto soil, 800 g of active material per hectare; evaluated 3 weeks after treatment
Outline: as §1

Papaver rhoeas [34] = test: Herbicidal activity, preemergence test; conditions: pre; sprayed onto soil, 800 g of active material per hectare; evaluated 3 weeks after treatment
Outline: as §1

Lamium purpureum [35] = test: Herbicidal activity, preemergence test; conditions: pre; sprayed onto soil, 800 g of active material per hectare; evaluated 3 weeks after treatment
Outline: as §1

Chenopodium album [36] = test: Herbicidal activity, preemergence test; conditions: pre; sprayed onto soil, 800 g of active material per hectare; evaluated 3 weeks after treatment
Outline: as §1

Compound	ZEAMX control rating (0-9) (Zea mays [1])	ABUTH control rating (0-9) (Abutilon theophrasti [2])	AMARE control rating (0-9) (Amaranthus retroflexus [3])	GOSHI control rating (0-9) (Gossypium hirsutum [4])	STEME control rating (0-9) (Stellaria media [5])	ALOMY control rating (0-9) (Alopecurus myosuroides [6])	GALAP control rating (0-9) (Galium aparine [7])	IPOHE control rating (0-9) (Ipomoea hederacea [8])	SETVI control rating (0-9) (Setaria viridis [9])	AMBEL control rating (0-9) (Ambrosia artemisifolia [10])	GLXMA control rating (0-9) (Glycine max [11])	HORVW control rating (0-9) (Hordeum vulgare [12])	TRZAW control rating (0-9) (Triticum aestivum [13])	VERPE control rating (0-9) (Veronica persica [14])	MATIN control rating (0-9) (Matricaria inodora [15])	PAPRH control rating (0-9) (Papaver rhoeas [16])	LAMPU control rating (0-9) (Lamium purpureum [17])	CHEAL control rating (0-9) (Chenopodium album [18])	ZEAMX control rating (0-9) (Zea mays [19])	ABUTH control rating (0-9) (Abutilon theophrasti [20])	other results
C[C@H](NC(=O)c1nnc(-c2ccc(Cl)cc2Cl)o1)c1ccccc1 [Example 26]	0 (no effect)	1 (trace effect)	8 (approaching complete kill)	3 (moderate effect)	6 (herbicidal effect)	0 (no effect)	0 (no effect)	0 (no effect)	4 (injury)	0 (no effect)	2 (slight effect)	0 (no effect)	0 (no effect)	3 (moderate effect)	2 (slight effect)	3 (moderate effect)	7 (good herbicidal effect)	5 (definite injury)	0 (no effect)	0 (no effect)	AMARE control rating (0-9) (Amaranthus retroflexus [21]): 3 (moderate effect); GOSHI control rating (0-9) (Gossypium hirsutum [22]): 0 (no effect); STEME control rating (0-9) (Stellaria media [23]): 0 (no effect); ALOMY control rating (0-9) (Alopecurus myosuroides [24]): 0 (no effect); GALAP control rating (0-9) (Galium aparine [25]): 0 (no effect); IPOHE control rating (0-9) (Ipomoea hederacea [26]): 0 (no effect); SETVI control rating (0-9) (Setaria viridis [27]): 0 (no effect); AMBEL control rating (0-9) (Ambrosia artemisifolia [28]): 0 (no effect); GLXMA control rating (0-9) (Glycine max [29]): 0 (no effect); HORVW control rating (0-9) (Hordeum vulgare [30]): 0 (no effect); TRZAW control rating (0-9) (Triticum aestivum [31]): 0 (no effect); VERPE control rating (0-9) (Veronica persica [32]): 7 (good herbicidal effect); MATIN control rating (0-9) (Matricaria inodora [33]): 0 (no effect); PAPRH control rating (0-9) (Papaver rhoeas [34]): 9 (complete kill); LAMPU control rating (0-9) (Lamium purpureum [35]): 0 (no effect); CHEAL control rating (0-9) (Chenopodium album [36]): 0 (no effect)
C[C@H](NC(=O)c1nnc(-c2ccc(Cl)c(Cl)c2)o1)c1ccccc1 [Example 27]	0 (no effect)	0 (no effect)	5 (definite injury)	2 (slight effect)	0 (no effect)	0 (no effect)	0 (no effect)	0 (no effect)	0 (no effect)	0 (no effect)	2 (slight effect)	0 (no effect)	0 (no effect)	0 (no effect)	0 (no effect)	2 (slight effect)	4 (injury)	6 (herbicidal effect)	0 (no effect)	0 (no effect)	AMARE control rating (0-9) (Amaranthus retroflexus [21]): 0 (no effect); GOSHI control rating (0-9) (Gossypium hirsutum [22]): 0 (no effect); STEME control rating (0-9) (Stellaria media [23]): 0 (no effect); ALOMY control rating (0-9) (Alopecurus myosuroides [24]): 0 (no effect); GALAP control rating (0-9) (Galium aparine [25]): 0 (no effect); IPOHE control rating (0-9) (Ipomoea hederacea [26]): 0 (no effect); SETVI control rating (0-9) (Setaria viridis [27]): 0 (no effect); AMBEL control rating (0-9) (Ambrosia artemisifolia [28]): 0 (no effect); GLXMA control rating (0-9) (Glycine max [29]): 0 (no effect); HORVW control rating (0-9) (Hordeum vulgare [30]): 0 (no effect); TRZAW control rating (0-9) (Triticum aestivum [31]): 0 (no effect); VERPE control rating (0-9) (Veronica persica [32]): 3 (moderate effect); MATIN control rating (0-9) (Matricaria inodora [33]): 0 (no effect); PAPRH control rating (0-9) (Papaver rhoeas [34]): 3 (moderate effect); LAMPU control rating (0-9) (Lamium purpureum [35]): 0 (no effect); CHEAL control rating (0-9) (Chenopodium album [36]): 0 (no effect)
